Results as given in ChEMBL document CHEMBL5338775, “Discovery of a Novel Class of PROTACs as Potent and Selective Estrogen Receptor α Degraders to Overcome Endocrine-Resistant Breast Cancer In Vitro and In Vivo” (J Med Chem, 2023).

How the values were obtained:
[1] = target: T1, Estrogen receptor beta (Homo sapiens, UniProt Q92731); experiment: Binding affinity to ERbeta (unknown origin) assessed as relative binding affinity incubated for 2 hrs by fluorescence polarization assay relative to estradiol
[2] = Selectivity ratio of relative binding affinity for ERalpha (unknown origin) to relative binding affinity to ERbeta (unknown origin)
[3] = Selectivity index, ratio of Ki for ERalpha (unknown origin) to Ki for ERbeta (unknown origin)
[4] = target: T2, Estrogen receptor (Homo sapiens, UniProt P03372)
T2 sequence (P03372 whole entry): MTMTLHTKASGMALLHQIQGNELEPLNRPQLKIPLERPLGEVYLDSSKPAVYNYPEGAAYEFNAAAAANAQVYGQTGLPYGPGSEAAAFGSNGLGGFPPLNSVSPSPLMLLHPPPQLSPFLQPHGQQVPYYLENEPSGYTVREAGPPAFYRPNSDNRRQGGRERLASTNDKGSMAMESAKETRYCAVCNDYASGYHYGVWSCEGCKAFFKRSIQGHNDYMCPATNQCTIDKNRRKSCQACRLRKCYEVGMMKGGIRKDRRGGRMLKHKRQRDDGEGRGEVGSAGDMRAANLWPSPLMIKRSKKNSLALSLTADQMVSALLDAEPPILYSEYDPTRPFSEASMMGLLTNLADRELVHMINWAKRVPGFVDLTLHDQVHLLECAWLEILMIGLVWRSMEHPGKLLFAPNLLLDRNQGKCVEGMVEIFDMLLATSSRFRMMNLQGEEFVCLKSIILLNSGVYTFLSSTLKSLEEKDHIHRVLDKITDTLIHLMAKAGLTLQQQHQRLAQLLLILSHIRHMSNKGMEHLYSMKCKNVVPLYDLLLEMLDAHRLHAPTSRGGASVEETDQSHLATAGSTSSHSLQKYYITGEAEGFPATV

[5] = target: T1, Estrogen receptor beta
[6] = tested on: MCF7; experiment: cells; conditions: Homo sapiens, MCF7, 72 h
[7] = cells; conditions: Homo sapiens, Tamoxifen-resistant LCC2 cell, 72 h
[8] = tested on: T47D; experiment: cells; conditions: Homo sapiens, 72 h
[9] = tested on: T47D; experiment: cells; conditions: Homo sapiens, 72 h; remark: listed apart in the source
[10] = tested on: T47D; experiment: cells; conditions: Homo sapiens, 72 h; remark: listed apart in the source
[11] = tested on: MDA-MB-231; experiment: cells; conditions: Homo sapiens, MDA-MB-231, 72 h
[12] = in vitro; conditions: human, MCF-10A cells

T1 sequence (Q92731 whole entry): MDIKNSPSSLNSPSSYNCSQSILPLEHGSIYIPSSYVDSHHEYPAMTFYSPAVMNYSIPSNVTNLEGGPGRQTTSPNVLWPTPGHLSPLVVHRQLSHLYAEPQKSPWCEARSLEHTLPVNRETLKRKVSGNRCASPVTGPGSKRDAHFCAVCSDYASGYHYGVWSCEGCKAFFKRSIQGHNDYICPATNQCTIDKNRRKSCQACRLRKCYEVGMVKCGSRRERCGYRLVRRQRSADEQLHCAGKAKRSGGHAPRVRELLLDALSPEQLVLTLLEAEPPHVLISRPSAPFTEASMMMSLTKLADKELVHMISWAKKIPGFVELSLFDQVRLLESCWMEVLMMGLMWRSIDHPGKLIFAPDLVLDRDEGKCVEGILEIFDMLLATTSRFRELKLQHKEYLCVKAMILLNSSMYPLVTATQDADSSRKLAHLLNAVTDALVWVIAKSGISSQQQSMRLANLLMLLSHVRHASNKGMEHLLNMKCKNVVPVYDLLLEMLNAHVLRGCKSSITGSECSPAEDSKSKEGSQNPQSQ

SMILES	RBA [1]	Selectivity ratio [2]	Ratio Ki [3]	Ki [4]	Ki [5]	IC50 [6]	IC50 [7]	IC50 [8]	IC50 [9]	IC50 [10]	IC50 [11]	IC50 at 72 h [12]
CCN(c1ccc(OCCCCCCC(=O)N[C@H](C(=O)N2C[C@H](O)C[C@H]2C(=O)N[C@@H](C)c2ccc(-c3scnc3C)cc2)C(C)(C)C)cc1)S(=O)(=O)C1CC2OC1C(c1ccc(O)cc1)=C2c1ccc(O)cc1 (stereo partly drawn)	0.07%	1.43	5.53	2.03 µM	11.2 µM	0.57 µM	> 30 µM	> 30 µM	> 30 µM	> 30 µM	> 100 µM	> 100 µM
CCN(c1ccc(OCCCCCCC(=O)N[C@H](C(=O)N2C[C@H](O)C[C@H]2C(=O)NCc2ccc(-c3scnc3C)cc2)C(C)(C)C)cc1)S(=O)(=O)C1CC2OC1C(c1ccc(O)cc1)=C2c1ccc(O)cc1 (stereo partly drawn)	0.12%	1.58	6.13	1.07 µM	6.55 µM	0.43 µM	> 30 µM	> 30 µM	> 30 µM	> 30 µM	> 100 µM	> 100 µM
CCN(c1ccc(OCCCCCCCCCC(=O)N[C@H](C(=O)N2C[C@H](O)C[C@H]2C(=O)NCc2ccc(-c3scnc3C)cc2)C(C)(C)C)cc1)S(=O)(=O)C1CC2OC1C(c1ccc(O)cc1)=C2c1ccc(O)cc1 (stereo partly drawn)	0.08%	0.75	2.9	3.38 µM	9.83 µM	> 10 µM	> 30 µM	> 30 µM	> 30 µM	> 30 µM	> 100 µM	> 100 µM
CCN(c1ccc(OCCCCCCCC(=O)N[C@H](C(=O)N2C[C@H](O)C[C@H]2C(=O)NCc2ccc(-c3scnc3C)cc2)C(C)(C)C)cc1)S(=O)(=O)C1CC2OC1C(c1ccc(O)cc1)=C2c1ccc(O)cc1 (stereo partly drawn)	0.1%	2.7	10.4	0.75 µM	7.86 µM	> 10 µM	> 30 µM	> 30 µM	> 30 µM	> 30 µM	> 100 µM	> 100 µM
CCN(c1ccc(OCCCCCCCCC(=O)N[C@H](C(=O)N2C[C@H](O)C[C@H]2C(=O)NCc2ccc(-c3scnc3C)cc2)C(C)(C)C)cc1)S(=O)(=O)C1CC2OC1C(c1ccc(O)cc1)=C2c1ccc(O)cc1 (stereo partly drawn)	0.07%	0.57	2.21	5.08 µM	11.2 µM	> 10 µM	> 30 µM	> 30 µM	> 30 µM	> 30 µM	> 100 µM	> 100 µM
CCN(c1ccc(OCCCCC(=O)N[C@H](C(=O)N2C[C@H](O)C[C@H]2C(=O)N[C@@H](C)c2ccc(-c3scnc3C)cc2)C(C)(C)C)cc1)S(=O)(=O)C1CC2OC1C(c1ccc(O)cc1)=C2c1ccc(O)cc1 (stereo partly drawn)	0.11%	1.45	5.63	1.27 µM	7.15 µM	0.93 µM	16.8 µM	14.2 µM	14.6 µM	18.1 µM	> 100 µM	2.4 µM
CC/C(=C(\c1ccc(O)cc1)c1ccc(OCCN(C)C)cc1)c1ccccc1 [AFIMOXIFENE]	–	–	–	–	–	–	22.2 µM	1.95 µM	11.6 µM	9.89 µM	–	–
CCN(c1ccc(OCCCCC(=O)N[C@H](C(=O)N2C[C@H](O)C[C@H]2C(=O)NCc2ccc(-c3scnc3C)cc2)C(C)(C)C)cc1)S(=O)(=O)C1CC2OC1C(c1ccc(O)cc1)=C2c1ccc(O)cc1 (stereo partly drawn)	0.13%	2.15	8.34	0.73 µM	6.05 µM	1.11 µM	15.2 µM	3.03 µM	4.58 µM	7.27 µM	> 100 µM	1.03 µM
